According to patent publication US20200239530A1, “COMPOUNDS AND METHODS OF MODULATING PROTEIN DEGRADATION” (Vividion Therapeutics, Inc., priority 2017, published 2020):

Experiments:
Type in all cases: binding
[1] = biological target: T1, ANKRD54 Ankyrin repeat domain-containing protein 54 (Homo sapiens, UniProt Q6NXT1); assay: Cysteine liganding, probe competition
T1 construct: 200 μL of lysate containing 5 mg/ml proteome was treated with 2 μL of 100× compound stock; endogenous in cells
Protocol: (§1) Cells were resuspended in cold PBS on ice and sonicated with a probe sonicator to achieve lysis. 200 μL of lysate containing 5 mg/ml proteome was treated with 2 μL of 100× compound stock in a 2-mL deep-well plate. The treated lysate was subsequently incubate at 25° C. for 1 hr with shaking at 600 rpm. The treated lysate was further incubated with 2 μL of 10 mM desthiobiotin iodoacetamide probe at 25° C. for 1 hr with shaking at 600 rpm. Next, the lysate was further treat with 20 μL of solution of PBS containing 11 mM MgSO4 and 2.5% Turbonuclease stock and incubated at 25° C. for 20 minutes with shaking at 600 rpm. 1.7 mL ice-cold acetone was added to each well and incubated at −20° C. for 2 hr, followed by max speed (4200 rpm) spin for 45 min. Acetone was then decanted and the plates were blotted to remove acetone. The plates were then dried in open air for 20 minutes. After drying, the plates were then covered with foil seal and stored at −80° C. overnight.
The next day, samples were re-suspended in 90 μL of solution of 9M urea, 50 mM ammonium bicarbonate and 10 mM DTT by incubating at 65C for 20 min with shaking at 1500 rpm. Next, samples were cooled to 37° C. and then 10 μL of 500 mM iodoacetamide solution (92.48 mg/ml) was added. The samples were then incubated at 37° C. for 30 min with shaking at 600 rpm.
ZEBA desalting plates were equilibrated 4 times using 250 μL of 2M urea, 50 mM ammonium bicarbonate solution followed by centrifugation at 1500 rpm for 2 minutes. After equilibration was complete, samples were applied to ZEBA desalting plate and spin at 1500 rpm for 2 min on top of 1 mL 96-well deep-well collection plate to buffer exchange samples. 4 μL of solution containing 25 mM CaCl2 and 0.25 mg/mL trypsin was added to the plate and the plate was then incubated at 37° C. for 2 hrs with shaking at 600 rpm. 300 μL of solution containing 5% high-capacity streptavidin agarose slurry in 25 mM Tris-HCl pH 7.5, 150 mM NaCl, and 0.1% NP-40 then added. The plate was incubated at 25° C. for 2 hrs with shaking at 600 rpm. Samples were transferred to 25 μm filter plate and spin at 1000 rpm for 2 min. Samples were then washed 3 times with 0.75 mL of wash buffer (25 mM Tris-HCl pH 7.5, 150 mM NaCl, and 0.1% NP-40) followed by washing 3 times with 0.75 mL PBS, and then 4 times with 0.75 mL water. After the washing step, samples were eluted into polypropylene 96-well plate by addition of 250 µL of 50% MeCN/water, 0.1% formic acid and allowed to gravity drip for 10 min, followed by centrifugation at 1000 rpm for 2 min. Speedvac was used to dry the plates at about 45° C. for […]. Then the plates were covered with foil seal and stored at −20° C.
Samples were resuspended by addition of 20 μl of 12.5% ACN, 0.1% formic acid solution, covered with foil seal, and incubated at 42° C. for 10 minutes with shaking at 600 rpm. Then add 30 μL of 0.1% formic acid solution was added and the plate was covered and incubated at 42° C. for 10 minutes with shaking at 600 rpm. Seal plate was then sealed with a 96-well silicon mat for analysis.

[2] = biological target: T2, Q8ND25 (Homo sapiens, UniProt Q8ND25); assay: Cysteine liganding, probe competition (Table 2B); conditions: one line per cysteine site
T2 construct: 200 μL of lysate containing 5 mg/ml proteome was treated with 2 μL of 100× compound stock; endogenous in cells
Text: (§2) The following 96-well sample prep protocol was used for sample preparation.

[3] = biological target: T3, Q8NHG8 (Homo sapiens, UniProt Q8NHG8); assay: Cysteine liganding, probe competition (Table 2B); conditions: one line per cysteine site
T3 construct: 200 μL of lysate containing 5 mg/ml proteome was treated with 2 μL of 100× compound stock; endogenous in cells
Text: as §2

[4] = biological target: cysteine residue illustrated in Table 1A or Table 2A (Homo sapiens, UniProt Q13616); assay: Competitive cysteine profiling of cell lysate with desthiobiotin iodoacetamide probe (96-well sample prep); parameters: endogenous in cells; conditions: UniProt Q13616; 100 uM
Protocol: In some embodiments, the solution sample (e.g., cell sample, cell lysate sample, or comprising isolated proteins) is incubated with a compound of Formula (I) for analysis of protein-probe interactions. In some instances, the solution sample (e.g., cell sample, cell lysate sample, or comprising isolated proteins) is further incubated in the presence of an additional compound probe prior to addition of the compound of Formula (I). […] In such instances, the solution sample is incubated with a probe and a ligand for competitive protein profiling analysis.
as §2
as §1, with “Acetone was then decanted and the plates were blotted to remove acetone. The plates were then dried in open air for 20 minutes. After drying, the plates were then covered with foil seal and stored at −80° C. overnight.” left out

[5] = 500 uM, read-out: KB02_500 uM_percent_inhibition
[6] = 100 uM, read-out: KB05_100 uM_percent_inhibition

T1 sequence (Q6NXT1 whole entry, the tested form may be a part): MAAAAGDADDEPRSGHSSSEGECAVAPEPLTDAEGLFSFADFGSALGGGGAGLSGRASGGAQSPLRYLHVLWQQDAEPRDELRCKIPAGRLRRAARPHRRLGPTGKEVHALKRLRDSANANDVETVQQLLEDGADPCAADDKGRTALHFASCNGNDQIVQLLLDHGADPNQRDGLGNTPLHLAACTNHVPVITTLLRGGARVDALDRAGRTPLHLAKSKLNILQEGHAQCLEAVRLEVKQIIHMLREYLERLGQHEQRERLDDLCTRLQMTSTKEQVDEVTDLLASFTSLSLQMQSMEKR
T2 sequence (Q8ND25 whole entry): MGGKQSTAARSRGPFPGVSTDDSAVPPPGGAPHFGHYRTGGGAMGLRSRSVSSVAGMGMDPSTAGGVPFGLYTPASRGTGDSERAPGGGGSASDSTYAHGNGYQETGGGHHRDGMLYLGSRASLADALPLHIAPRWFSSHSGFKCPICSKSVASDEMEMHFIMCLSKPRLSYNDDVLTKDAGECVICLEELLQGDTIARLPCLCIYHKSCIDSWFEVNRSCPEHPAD
T3 sequence (Q8NHG8 whole entry): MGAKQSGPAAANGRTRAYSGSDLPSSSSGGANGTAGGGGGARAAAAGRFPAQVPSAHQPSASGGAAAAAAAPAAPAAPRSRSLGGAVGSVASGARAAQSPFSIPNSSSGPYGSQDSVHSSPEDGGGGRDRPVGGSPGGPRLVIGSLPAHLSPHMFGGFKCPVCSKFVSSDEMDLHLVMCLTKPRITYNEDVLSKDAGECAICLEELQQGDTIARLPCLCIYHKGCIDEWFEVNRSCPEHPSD
Chain of cysteine residue illustrated in Table 1A or Table 2A (Q13616 whole entry): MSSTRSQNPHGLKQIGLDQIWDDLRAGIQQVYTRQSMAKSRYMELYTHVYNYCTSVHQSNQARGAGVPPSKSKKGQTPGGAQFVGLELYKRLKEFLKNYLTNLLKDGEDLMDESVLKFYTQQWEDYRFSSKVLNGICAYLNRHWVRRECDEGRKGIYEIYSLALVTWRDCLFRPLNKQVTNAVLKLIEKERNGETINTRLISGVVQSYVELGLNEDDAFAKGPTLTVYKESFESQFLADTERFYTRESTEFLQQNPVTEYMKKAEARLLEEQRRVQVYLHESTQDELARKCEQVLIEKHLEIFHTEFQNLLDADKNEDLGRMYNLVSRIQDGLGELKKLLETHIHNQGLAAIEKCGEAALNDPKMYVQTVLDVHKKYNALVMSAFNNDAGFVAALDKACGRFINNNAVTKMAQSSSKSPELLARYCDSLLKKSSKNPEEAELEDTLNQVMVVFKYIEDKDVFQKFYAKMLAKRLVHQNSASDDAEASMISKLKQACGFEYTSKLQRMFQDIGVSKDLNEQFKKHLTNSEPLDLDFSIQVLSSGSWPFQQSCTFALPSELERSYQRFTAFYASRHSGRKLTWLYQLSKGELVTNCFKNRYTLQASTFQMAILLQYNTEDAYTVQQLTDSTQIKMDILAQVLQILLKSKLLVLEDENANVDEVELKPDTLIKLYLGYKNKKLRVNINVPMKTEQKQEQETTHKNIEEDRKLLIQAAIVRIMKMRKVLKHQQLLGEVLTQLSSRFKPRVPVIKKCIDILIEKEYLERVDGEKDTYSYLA

Structure (SMILES): COc1ccc2c(c1)CCCN2C(=O)CCl [KB02]
- Liganded ([1]; ANKRD54 Res# 230, uniprot Q6NXT1): YES
- inhibition at 500 µM [2, 5]: 42%
- inhibition at 500 µM [3, 5]: 35%

Structure (SMILES): C=CC(=O)N(c1ccccc1)c1ccc(Br)cc1 [KB05]
- inhibition at 100 µM [2, 6]: 9%
- inhibition at 100 µM [3, 6]: 9%
- KB05_100 uM_percent_inhibition [4]: 4%

Structure (SMILES): O=C(CCl)Nc1cc(C(F)(F)F)cc(C(F)(F)F)c1 [KBO3]
- 100 Max ([1]; uniprot Q6NXT1): 7.02
- 100 ave ([1]; uniprot Q6NXT1): −0.72
- 500 Max ([1]; uniprot Q6NXT1): 45.29
- 500 ave ([1]; uniprot Q6NXT1): 44.21
- KB03_100 uM_percent_inhibition [4]: 31%
